Data taken from US11607414B2, “Small molecule inhibitors of EGFR and PI3K” (The Regents of the University of Michigan, priority 2014, dated 2023).

Columns and labels:
[1] = tested on: phosphorylation of AKT in HCT-116 tumors; experiment: In vivo pharmacodynamics in subcutaneous HCT-116 tumors, pAKT; details: intraperitoneal 100 mg/kg
From the text: (§1) However, additional synthesis of MOL-162 is needed to allow a full pharmacodynamic time course study to be carried out to determine the maximal degree of target inhibition of both targets after single and repeated daily dosing.

EGFR = EGFR (Homo sapiens, UniProt P00533); experiment: Z'-LYTE biochemical kinase assay, EGFR; details: read-out: potency against EGFR
EGFR, sequence (P00533 25-1210): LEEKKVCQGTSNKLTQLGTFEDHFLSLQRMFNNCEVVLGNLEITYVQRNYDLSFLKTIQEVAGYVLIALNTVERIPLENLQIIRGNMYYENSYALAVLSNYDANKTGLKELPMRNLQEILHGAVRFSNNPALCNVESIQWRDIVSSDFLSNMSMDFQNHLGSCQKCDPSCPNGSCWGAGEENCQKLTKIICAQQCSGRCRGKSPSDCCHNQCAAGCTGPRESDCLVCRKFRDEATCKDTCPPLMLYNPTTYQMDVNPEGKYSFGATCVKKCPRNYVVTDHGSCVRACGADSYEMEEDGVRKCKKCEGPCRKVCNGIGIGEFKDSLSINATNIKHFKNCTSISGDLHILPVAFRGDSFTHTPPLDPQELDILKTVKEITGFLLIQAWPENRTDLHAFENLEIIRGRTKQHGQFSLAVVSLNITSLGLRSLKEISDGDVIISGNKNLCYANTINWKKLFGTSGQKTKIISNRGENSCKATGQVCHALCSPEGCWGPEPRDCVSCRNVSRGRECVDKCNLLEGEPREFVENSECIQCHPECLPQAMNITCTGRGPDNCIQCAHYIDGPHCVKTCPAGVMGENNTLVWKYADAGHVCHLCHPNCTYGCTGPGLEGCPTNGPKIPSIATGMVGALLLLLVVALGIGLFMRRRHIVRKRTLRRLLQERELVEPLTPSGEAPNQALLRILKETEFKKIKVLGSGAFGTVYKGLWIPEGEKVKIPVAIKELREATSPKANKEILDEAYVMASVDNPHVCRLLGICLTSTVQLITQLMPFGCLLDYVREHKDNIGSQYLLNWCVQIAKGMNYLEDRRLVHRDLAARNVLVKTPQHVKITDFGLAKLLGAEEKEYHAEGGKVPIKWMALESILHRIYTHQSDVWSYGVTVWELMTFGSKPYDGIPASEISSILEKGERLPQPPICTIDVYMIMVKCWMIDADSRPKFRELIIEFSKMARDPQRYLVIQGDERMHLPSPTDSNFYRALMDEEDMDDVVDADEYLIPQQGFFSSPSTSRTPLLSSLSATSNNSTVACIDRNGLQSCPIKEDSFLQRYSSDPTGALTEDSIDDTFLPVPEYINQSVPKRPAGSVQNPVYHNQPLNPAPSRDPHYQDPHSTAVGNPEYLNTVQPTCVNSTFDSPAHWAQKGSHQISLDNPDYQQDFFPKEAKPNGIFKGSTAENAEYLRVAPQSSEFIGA
Method: Various compounds were tested for their ability to inhibit EGFR and PIK3CA. The assays determining inhibitions are given in Example 2 Assays-Z′-LYTE® and ADAPTA.
Assays: The Z′-LYTE® biochemical assay employs a fluorescence-based, coupled-enzyme format and is based on the differential sensitivity of phosphorylated and non-phosphorylated peptides to proteolytic cleavage (FIG. 6). The peptide substrate is labeled with two fluorophores—one at each end— that make up a FRET pair. In the primary reaction, the kinase transfers the gamma-phosphate of ATP to a single tyrosine, serine or threonine residue in a synthetic FRET-peptide. […] A ratiometric method, which calculates the ratio (the Emission Ratio) of donor emission to acceptor emission after excitation of the donor fluorophore at 400 nm, is used to quantitate reaction progress.
A significant benefit of this ratiometric method for quantitating reaction progress is the elimination of well-to-well variations in FRET-peptide concentration and signal intensities. […]
Both cleaved and uncleaved FRET-peptides contribute to the fluorescence signals and therefore to the Emission Ratio. The extent of phosphorylation of the FRET-peptide can be calculated from the Emission Ratio. […]
Bar-coded Corning, low volume NBS, black 384-well plate (Corning Cat. 4514) 1. […] Read on fluorescence plate reader and analyze the data.

[2] = tested on: phosphorylation of EGFR in HCT-116 tumors; experiment: In vivo pharmacodynamics in subcutaneous HCT-116 tumors, pEGFR; details: intraperitoneal 100 mg/kg
From the text: as §1

[3] = molecular target: panel of 39 kinases (tyrosine, serine/threonine and lipid kinases); experiment: Broad panel of 39 kinases at 10 μM; format: biochemical
From the text: Numerous hits were designed with nanomolar potency against EGFR and PIK3CA. […] A structure-activity relationship was shown for these agents against both of the biochemical targets.

COL-205 xenografts = experiment: Xenograft study, COL-205; format: in vivo, NCR nude mice; details: higher dose (100 mg/kg), daily for 10 days, oral
From the text: (§2) FIGS. 8A, 8B, 8C, 8D, and 8E show in vivo efficacy of MOL-201 against, HCT-116, A431, COL-205, SK-MEL5 and MDA-MB-468 xenografts. […] The method is outlined in Example 2—Xenograft Studies.
(§3) Female 6-7 week old NCR nude mice (CrTac:NCr-Foxn1nu from Taconic), 6-7 weeks old, were implanted subcutaneously with 1×10^6 to 1×10^7 cells in a 1:1 serum-free media/Matrigel® mixture into the region of the right axilla. Mice were randomized into treatment groups and treatments initiated when tumors reached 100 to 200 mg. MTX-201 was administered daily for 10 days by oral gavage as a clear yellow solution in 5% DMSO/95% PEG300, based upon individual animal body weight (0.2 ml/20 g). Subcutaneous tumor volume and body weights were measured two to three times a week. Tumor volumes were calculated by measuring two perpendicular diameters with calipers and using the formula: tumor volume=(length×width2)/2. Mice were held following cessation of treatment until tumor burdens reached −1000 mg, to allow for calculation of tumor growth delay. Percent treated/control (% T/C) was calculated by dividing the median treated tumor weight by the median control tumor weight and multiplying by 100 on the last day of treatment. Tumor growth delay (T-C) was calculated by subtracting the median time to reach evaluation size (750 mg) of the treated group by the median time to evaluation size of the control group. […]

SK-MEL5 xenografts = experiment: Xenograft study, SK-MEL5; format: in vivo, NCR nude mice; details: higher dose (100 mg/kg), daily for 10 days, oral
From the text: as §2, §3

HCT-116 xenografts = experiment: Xenograft study, HCT-116; format: in vivo, NCR nude mice; details: higher dose (100 mg/kg), daily for 10 days, oral
From the text: as §2, §3

[4] = Tolerability in xenograft-bearing mice; format: in vivo; details: oral, daily for 10 days at 20 and 100 mg/kg
From the text: as §2, §3

NCI-60 cell panel = experiment: NCI-60 COMPARE panel, one-dose % growth; format: cell-based, human; details: 10 μM
Method: The method is outlined in Example 2—NCI COMPARE Panel.
The human tumor cell lines of the cancer screening panel are grown in RPMI 1640 medium containing 5% fetal bovine serum and 2 mM L-glutamine. For a typical screening experiment, cells are inoculated into 96 well microtiter plates in 100 μL at plating densities ranging from 5,000 to 40,000 cells/well depending on the doubling time of individual cell lines. After cell inoculation, the microtiter plates are incubated at 37° C., 5% CO2, 95% air and 100% relative humidity for 24 h prior to addition of experimental drugs. […]
Following drug addition, the plates are incubated for an additional 48 h at 37° C., 5% CO2, 95% air, and 100% relative humidity. […] Bound stain is subsequently solubilized with 10 mM trizma base, and the absorbance is read on an automated plate reader at a wavelength of 515 nm. […] Using the seven absorbance measurements [time zero, (Tz), control growth, (C), and test growth in the presence of drug at the five concentration levels (Ti)], the percentage growth is calculated at each of the drug concentrations levels. Percentage growth inhibition is calculated as: [(Ti−Tz)/(C−Tz)]×100 for concentrations for which Ti>/=Tz [(Ti−Tz)/Tz]×100 for concentrations for which Ti<Tz. […]

[5] = tested on: HCT-116, A431, COL-205, SK-MEL5 and MDA-MB-468 xenografts; experiment: Xenograft studies, model not stated for the lower dose; format: in vivo, NCR nude mice; details: lower dose of 20 mg/kg
From the text: as §2, §3

A431 xenografts = experiment: Xenograft study, A431; format: in vivo, NCR nude mice; details: higher dose (100 mg/kg), daily for 10 days, oral
From the text: as §2, §3

With `COc1ccc(Nc2ncnc3ccc(-c4cncc(NS(C)(=O)=O)c4)cc23)cc1Cl` [MOL-153, N-(5-(4-((3-chloro-4-methoxyphenyl)amino)quinazolin-6-yl)pyridin-3-yl)methanesulfonamide] as the compound, how does the “inhibition of pAKT in tumors” value [1] read?
Its value is “inhibition of pAKT”.

What about the IC50 (EGFR) of the same compound?
Its IC50 is 349 nM.

What about the “inhibition of pEGFR in tumors” value [2] of the same compound?
The value was “not detected”.

What about the “kinase profile (in words)” value [3] of the same compound?
The value was “clean kinase profile”.

Which results are given for `CS(=O)(=O)Nc1cc(-c2ccc3ncnc(Nc4cccc(Cl)c4)c3c2)cnc1Cl` [MOL-201, N-(2-chloro-5-(4-((3-chlorophenyl)amino)quinazolin-6-yl)pyridin-3-yl)methanesulfonamide]?
anti-tumor activity (T/C and T-C) (COL-205 xenografts): Anti-tumor activity observed; anti-tumor activity (T/C and T-C) (SK-MEL5 xenografts): Anti-tumor activity observed; anti-tumor activity (T/C and T-C) (HCT-116 xenografts): Anti-tumor activity observed; tolerability [4]: well tolerated by mice with no clinical observations of toxicity; % growth in NCI-60 panel (in words) (NCI-60 cell panel): broad cell kill; anti-tumor activity [5]: elicited anti-tumor activity; anti-tumor activity (T/C and T-C) (A431 xenografts): Anti-tumor activity observed
